Laboratory results taken from patent US20120029167A1, “AUTO MAGNETIC METAL SALEN COMPLEX COMPOUND” (Yoshihiro Ishikawa, priority 2008, published 2012).

Legend:
[1] = 37° C. (310K) magnetic field-magnetization curve using MPMS7 (Quantum Design); format: physicochemical; conditions: for magnetic field at which magnetization is greater in comparison to the Fe-salen / magnetic properties from magnetic field-magnetization curve: 37° C. (310K); for magnetization compared among Fe-, Mn-, Cr-, Co-salen: magnetic field 10000 Oe (1 T) or more
Protocol: As a result of measuring the 37° C.
The summary of the results of the 37° C. (310K) magnetic field-magnetization curve of the Fe-salen complex, the Mn-salen complex, the Cr-salen complex, and the Co-salen complex is shown in FIG. 4.
In comparison to the Fe-salen, the Co-salen yields greater magnetization at a magnetic field of 10000 Oe (1 T (tesla)) or more. In comparison to the Fe-salen, the Mn-salen yields greater magnetization at a magnetic field of 30000 Oe (3 T (tesla)) or more.
Nevertheless, if the magnetic field is 10000 Oe (1 T (tesla)) or more, the magnetization of the Co-salen and Mn-salen complex is the greatest and is optimal for a magnetic field drug delivery system which uses a superconducting magnet.

rat L6 cells = experiment: Rat L6 cell culture in square flask with magnet, number of cells after 48 hours; format: cell-based; conditions: powder sprinkled on culture medium, L6 cells confluent at 30%, bar magnet
Protocol: The respective metal salen complex powders of the Fe-salen complex, the Mn-salen complex, the Cr-salen complex, and the Co-salen complex obtained with the foregoing method were sprinkled on a culture medium in an amount that where such powder can be visually confirmed to be drawn to the magnet in a state where the rat L6 cells are confluent at 30%, and a photograph of the state of the culture medium after 48 hours was taken.
Subsequently, a photograph was taken from one end to the other end of the bottom face of the square flask after 48 hours, and the results of calculating the number of cells are shown in FIG. 6. […]
Shown is a state where the bar magnet was caused to come in contact with a square flask as the culture medium of the rat L6 cells. Subsequently, a photograph was taken from one end to the other end of the bottom face of the square flask after 48 hours, and the number of cells was calculated. […]
Shown is a state where the bar magnet was caused to come in contact with a square flask as the culture medium of the rat L6 cells. Subsequently, a photograph was taken from one end to the other end of the bottom face of the square flask after 48 hours, and the number of cells was calculated.

SMILES	magnetic field at which magnetization is greater in comparison to the Fe-salen [1] [Oe]	magnetic properties from magnetic field-magnetization curve [1]	magnetization compared among Fe-, Mn-, Cr-, Co-salen [1]	number of cells proximal from the magnet versus distal (rat L6 cells)
Oc1ccccc1C=NCCN=Cc1ccccc1O.[Mn] [Mn-salen complex]	≥ 30000	paramagnetic properties were observed	the greatest	number of cells is extremely lower than the distal
[Cr+2].[O-]c1ccccc1C=NCCN=Cc1ccccc1[O-] [Cr-salen complex]	–	paramagnetic properties were observed	–	–
[Co+2].[O-]c1ccccc1C=NCCN=Cc1ccccc1[O-] [Co-salen complex]	≥ 10000	paramagnetic properties were observed	the greatest	–
